# Assay results taken from ChEMBL document CHEMBL1201862, “PubChem BioAssay data set” (2004).
# Calls of active or inactive are those of the source.
# Columns and labels:
# [1] = target: T1, High affinity choline transporter 1 (Homo sapiens, UniProt Q9GZV3); assay: CHT inhibitors, dose response, cell-based, 5-point CRC, membrane potential dye (AID 504840); assay type: functional
# T1 sequence (Q9GZV3 whole entry): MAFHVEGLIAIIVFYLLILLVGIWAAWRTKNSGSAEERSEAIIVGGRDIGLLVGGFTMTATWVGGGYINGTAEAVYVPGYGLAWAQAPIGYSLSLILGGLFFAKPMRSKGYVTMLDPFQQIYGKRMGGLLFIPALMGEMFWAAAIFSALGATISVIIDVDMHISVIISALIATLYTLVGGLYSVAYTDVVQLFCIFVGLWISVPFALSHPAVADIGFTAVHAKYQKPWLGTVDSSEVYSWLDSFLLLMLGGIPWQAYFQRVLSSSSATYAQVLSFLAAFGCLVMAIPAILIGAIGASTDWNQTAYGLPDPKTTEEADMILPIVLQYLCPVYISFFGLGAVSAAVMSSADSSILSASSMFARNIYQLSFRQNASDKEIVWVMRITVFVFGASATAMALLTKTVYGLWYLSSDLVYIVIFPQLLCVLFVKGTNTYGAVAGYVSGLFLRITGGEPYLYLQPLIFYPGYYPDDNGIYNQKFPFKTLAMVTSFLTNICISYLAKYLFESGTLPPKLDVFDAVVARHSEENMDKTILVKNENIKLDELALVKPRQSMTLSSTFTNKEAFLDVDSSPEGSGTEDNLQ
# [2] = target: T1, High affinity choline transporter 1; assay: CHT inhibitors, dose response, cell-based, 10-point CRC, membrane potential dye (AID 588401); assay type: functional;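 further: membrane potential dye fluorescence of choline-evoked depolarization via CHT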
# [3] = target: T2, Calpain-2 catalytic subunit (Sus scrofa, UniProt P43367); assay: pig calpain II inhibitor potency, dose response, biochemical, fluorogenic peptide substrate (AID 1420); assay type: functional
# T2 sequence (P43367 whole entry): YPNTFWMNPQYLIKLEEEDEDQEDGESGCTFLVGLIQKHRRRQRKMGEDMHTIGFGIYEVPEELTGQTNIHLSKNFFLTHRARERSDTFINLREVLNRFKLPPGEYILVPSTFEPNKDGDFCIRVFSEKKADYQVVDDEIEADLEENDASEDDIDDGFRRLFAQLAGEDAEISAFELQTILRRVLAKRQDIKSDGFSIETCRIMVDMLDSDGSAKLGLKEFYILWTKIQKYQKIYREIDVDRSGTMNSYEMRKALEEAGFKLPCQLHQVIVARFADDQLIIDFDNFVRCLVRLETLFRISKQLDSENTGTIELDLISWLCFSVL
# BJ [4] = assay: cytotoxicity toward BJ-TERT fibroblasts, dose response, cell-based, RAS-independent, luminescence (AID 1933); assay type: functional; conditions: Homo sapiens
# [5] = MC4R antagonists, dose response, counter-screen for LGR2 antagonist project, cell-based, plate reader, cherry pick (AID 743444); assay type: functional;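 further: transfected HEK 293 cells stimulated with alpha-MSH peptide; potency of inhibitors of the alpha-MSH evoked signal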
# [6] = LGR2 antagonists, dose response, cell-based, HEK293, CRE-luciferase reporter, cherry pick, set 2 (AID 743343); assay type: functional;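 further: transfected cells were stimulated with diluted bursicon conditioned medium after compound addition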
# BJ [7] = assay: cells; assay type: functional, cell-based; conditions: Homo sapiens
# Melanocortin receptor 4 = Melanocortin receptor 4 (Homo sapiens, UniProt P32245); assay: MC4R antagonist potency on cAMP, dose response, cell-based, TR-FRET, biased antagonists (AID 602298); assay type: functional;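 further: antagonist potency against agonist-stimulated cAMP production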
# [8] = cytotoxicity in KRAS-transformed pancreatic duct cells, primary screen, cell-based, fluorescence, HTS (AID 431); assay type: functional; conditions: Homo sapiens;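 further: cell line used: HPDE-C7K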
# [9] = inhibitors of PGC1a acetylation in cells, dose response, cell-based, cherry-picked samples (AID 720514); assay type: functional;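 further: potency may reflect raised or lowered acetylation signal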
# [10] = HepG2 cell cytotoxicity, dose response, cytotoxicity control, plate reader, cherry-pick, antagonist series (AID 743416); assay type: functional, cell-based
# [11] = cytotoxicity in HPDE-C7 cells, cell-based, fluorescence, HTS (AID 430); assay type: functional; conditions: Homo sapiens
# [12] = inhibitors of firefly luciferase expression or activity, dose response, H4 neuroglioma cells, luminescence (AID 1990); assay type: functional, cell-based
# [13] = A549 cell cytotoxicity, dose response, cytotoxicity control, plate reader, cherry-pick, antagonist series (AID 743412); assay type: functional, cell-based
# [14] = HEK293 cell cytotoxicity, dose response, cytotoxicity control, plate reader, cherry-picked samples (AID 743446); assay type: functional, cell-based
# [15] = nonselective inhibitors of cellular cAMP signaling, dose response, counter-screen for MC4R biased antagonist project, cell-based, TR-FRET cAMP detection (AID 602305); assay type: functional;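 further: U2OS cells stimulated with forskolin near its EC80 as the cAMP inducer; potency is for inhibition of forskolin-stimulated cAMP signaling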
# [16] = cytotoxicity toward DRD oncogenic fibroblasts, dose response, cell-based, non-viral oncogenic, luminescence (AID 1934); assay type: functional; conditions: Homo sapiens
# [17] = Luminescence Cell-Based Dose Response HTS to Identify Inhibitors of 5'UTR Stem-Loop Driven Prion Protein mRNA Translation in H4 Neuroglioblastoma Cells. [Related pubchem assays: 1827 (Project Summary), 1813 (Primary HTS)]; assay type: functional
# [18] = inhibitors of SNCA 5'UTR-driven reporter translation, confirmation, H4 neuroglioma cells, luminescence (AID 1988); assay type: functional, cell-based
# BJ [19] = assay: cytotoxicity toward BJ-TERT-LT-ST fibroblasts, dose response, cell-based, RAS-independent, luminescence (AID 1935); assay type: functional; conditions: Homo sapiens;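 further: BJ fibroblasts immortalized with TERT plus LT and ST oncogenes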
# [20] = target: Serine/threonine-protein kinase pim-2 (Homo sapiens, UniProt Q9P1W9); assay type: functional;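 further: value comes from a broad kinase panel profiling study in which PIM2 was one of the panel members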
# [21] = target: Serine/threonine-protein kinase D2 (Homo sapiens, UniProt Q9BZL6); assay type: functional;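 further: measured against PRKD2 as one member of a kinome-wide kinase profiling panel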
# [22] = target: Dual specificity protein kinase CLK2 (Homo sapiens, UniProt P49760); assay type: functional
# [23] = target: Serine/threonine-protein kinase D3 (Homo sapiens, UniProt O94806); assay type: functional;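 further: determined within a kinase panel screen, with PRKCN as the panel member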
# [24] = target: Dual specificity tyrosine-phosphorylation-regulated kinase 1A (Homo sapiens, UniProt Q13627); assay type: functional;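 further: measured against DYRK1A as one member of a broad kinome profiling panel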
# Chain of Serine/threonine-protein kinase D2 (Q9BZL6 whole entry): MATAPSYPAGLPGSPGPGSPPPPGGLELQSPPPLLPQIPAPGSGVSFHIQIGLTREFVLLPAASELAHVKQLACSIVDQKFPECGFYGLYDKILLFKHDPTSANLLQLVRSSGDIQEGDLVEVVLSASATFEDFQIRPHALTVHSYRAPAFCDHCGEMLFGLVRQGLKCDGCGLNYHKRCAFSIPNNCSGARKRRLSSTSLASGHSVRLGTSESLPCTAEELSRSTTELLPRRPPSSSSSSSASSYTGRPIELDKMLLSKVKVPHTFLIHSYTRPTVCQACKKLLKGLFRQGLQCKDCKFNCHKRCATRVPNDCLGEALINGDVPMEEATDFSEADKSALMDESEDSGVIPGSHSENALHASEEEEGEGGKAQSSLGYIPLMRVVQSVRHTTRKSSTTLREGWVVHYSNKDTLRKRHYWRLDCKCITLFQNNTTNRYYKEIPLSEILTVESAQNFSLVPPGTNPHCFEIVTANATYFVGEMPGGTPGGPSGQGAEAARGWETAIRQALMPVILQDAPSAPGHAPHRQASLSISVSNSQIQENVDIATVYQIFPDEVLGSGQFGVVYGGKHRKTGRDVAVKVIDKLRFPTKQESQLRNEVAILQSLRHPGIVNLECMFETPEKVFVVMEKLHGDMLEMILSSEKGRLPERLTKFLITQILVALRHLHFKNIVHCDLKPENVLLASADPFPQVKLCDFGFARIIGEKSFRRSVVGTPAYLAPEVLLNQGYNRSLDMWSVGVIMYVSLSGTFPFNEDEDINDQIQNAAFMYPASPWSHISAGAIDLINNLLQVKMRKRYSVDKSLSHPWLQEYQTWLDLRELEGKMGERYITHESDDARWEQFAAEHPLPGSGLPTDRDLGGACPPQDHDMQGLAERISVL
# Chain of Serine/threonine-protein kinase D3 (O94806 whole entry): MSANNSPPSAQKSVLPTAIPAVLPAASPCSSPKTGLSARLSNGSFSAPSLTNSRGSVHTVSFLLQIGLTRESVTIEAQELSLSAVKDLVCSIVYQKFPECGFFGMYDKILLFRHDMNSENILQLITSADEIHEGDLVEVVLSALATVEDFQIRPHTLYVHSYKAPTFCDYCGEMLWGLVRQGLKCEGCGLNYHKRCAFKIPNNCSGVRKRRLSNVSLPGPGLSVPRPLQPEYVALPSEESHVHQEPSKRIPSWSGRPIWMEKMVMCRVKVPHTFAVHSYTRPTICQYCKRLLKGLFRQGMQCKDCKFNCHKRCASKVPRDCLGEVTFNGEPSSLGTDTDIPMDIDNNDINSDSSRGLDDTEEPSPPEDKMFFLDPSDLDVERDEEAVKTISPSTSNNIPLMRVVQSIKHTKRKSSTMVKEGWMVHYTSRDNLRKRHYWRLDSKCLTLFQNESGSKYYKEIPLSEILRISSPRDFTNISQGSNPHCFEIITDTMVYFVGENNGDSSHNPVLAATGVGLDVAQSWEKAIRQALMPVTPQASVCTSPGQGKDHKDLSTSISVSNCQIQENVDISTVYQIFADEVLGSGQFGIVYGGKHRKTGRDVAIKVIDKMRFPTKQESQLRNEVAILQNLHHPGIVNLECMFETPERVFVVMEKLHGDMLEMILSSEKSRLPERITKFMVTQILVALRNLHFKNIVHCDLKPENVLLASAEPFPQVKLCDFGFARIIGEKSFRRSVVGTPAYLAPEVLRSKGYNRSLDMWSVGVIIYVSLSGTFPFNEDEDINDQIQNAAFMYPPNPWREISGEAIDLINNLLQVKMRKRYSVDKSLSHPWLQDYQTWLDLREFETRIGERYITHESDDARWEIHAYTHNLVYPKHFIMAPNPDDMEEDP
# Chain of Serine/threonine-protein kinase pim-2 (Q9P1W9 whole entry): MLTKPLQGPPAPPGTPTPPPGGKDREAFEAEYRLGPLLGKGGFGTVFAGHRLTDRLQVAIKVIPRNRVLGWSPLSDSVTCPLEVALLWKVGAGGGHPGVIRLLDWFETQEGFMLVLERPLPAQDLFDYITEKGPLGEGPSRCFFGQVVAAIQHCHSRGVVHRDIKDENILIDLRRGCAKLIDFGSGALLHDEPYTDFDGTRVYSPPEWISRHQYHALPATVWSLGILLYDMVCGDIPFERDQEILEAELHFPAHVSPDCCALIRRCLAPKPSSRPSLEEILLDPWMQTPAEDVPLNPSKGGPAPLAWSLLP
# Chain of Melanocortin receptor 4 (P32245 whole entry): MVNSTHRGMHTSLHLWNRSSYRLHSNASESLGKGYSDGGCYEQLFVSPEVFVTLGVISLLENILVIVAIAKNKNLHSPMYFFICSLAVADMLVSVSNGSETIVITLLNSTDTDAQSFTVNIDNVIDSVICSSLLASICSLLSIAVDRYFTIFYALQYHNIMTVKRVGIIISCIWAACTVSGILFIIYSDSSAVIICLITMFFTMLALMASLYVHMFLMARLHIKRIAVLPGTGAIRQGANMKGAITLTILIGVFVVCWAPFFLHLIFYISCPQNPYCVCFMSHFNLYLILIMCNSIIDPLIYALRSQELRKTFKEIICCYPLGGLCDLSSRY
# Chain of Dual specificity protein kinase CLK2 (P49760 whole entry): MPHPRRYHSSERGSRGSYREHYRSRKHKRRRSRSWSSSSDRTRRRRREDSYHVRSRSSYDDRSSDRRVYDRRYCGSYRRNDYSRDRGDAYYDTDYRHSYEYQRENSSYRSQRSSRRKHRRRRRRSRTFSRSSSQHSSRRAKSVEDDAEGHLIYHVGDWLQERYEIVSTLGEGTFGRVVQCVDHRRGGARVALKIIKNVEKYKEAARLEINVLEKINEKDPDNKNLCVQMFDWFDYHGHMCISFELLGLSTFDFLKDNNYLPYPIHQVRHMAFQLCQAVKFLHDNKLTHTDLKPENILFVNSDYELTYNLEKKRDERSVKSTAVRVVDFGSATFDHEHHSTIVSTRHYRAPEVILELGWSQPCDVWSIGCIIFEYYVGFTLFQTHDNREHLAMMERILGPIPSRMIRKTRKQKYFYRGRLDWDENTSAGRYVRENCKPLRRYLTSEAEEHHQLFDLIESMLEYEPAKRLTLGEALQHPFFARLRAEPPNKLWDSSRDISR
smiles,measurement,setting,value
CC(C)CCN=C(S)Nc1ccc([N+](=O)[O-])cc1,IC50,[1],9.34 µM (active)
same,IC50,[2],8.43 µM (active)
same,IC50,[3],> 50 µM (not active)
C[S+]([O-])c1nc(-c2ccc(Br)cc2)cc(-c2ccccc2)c1C#N (stereo not given),EC50,BJ [4],3.04 µM (active)
same,AC50,[5],25.1 µM (active)
same,AC50,[6],19.8 µM (active)
same,EC50,BJ [7],5.13 µM (active)
same,IC50,Melanocortin receptor 4,1.28 µM (active)
same,EC50,[8],2.18 µM (active)
same,AC50,[9],5.21 µM (active)
same,AC50,[10],11.2 µM (active)
same,EC50,[11],1.78 µM (active)
same,EC50,[12],7.72 µM (active)
same,AC50,[13],3.25 µM (active)
same,AC50,[14],7.73 µM (active)
same,IC50,[15],> 64.6 µM (inactive)
same,EC50,[16],2.91 µM (active)
same,EC50,[17],5.38 µM (active)
same,EC50,[18],3.41 µM (active)
same,EC50,BJ [19],2.41 µM (active)
Cn1ccc2c(-c3ccccc3F)nc(N(C(N)=O)c3c(F)cccc3F)nc21,Ki,[20],1.26 µM (active)
same,Ki,[21],3.16 µM (active)
same,Ki,[22],7.94 µM (active)
same,Ki,[23],2 µM (active)
same,Ki,[24],3.16 µM (active)
